Results taken from US10208059B2, “Heterocyclic modulators of HIF activity for treatment of disease” (Board of Regents, University of Texas System, priority 2012, dated 2019).
pIC50: −log10 of the molar value. Counter-ions that a name gives are not always drawn.

Tested on: 293T-HRE-GFP-luc cells
Assay: Cell-based reporter assay for IC50 determinations
Conditions: hypoxia 6 hrs (1% O2), luminescence, read-out: IC50 Classification
Outline: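 IC50 comes from a four-parameter logistic fit of luminescence from HRE-GFP-luc 293T cells. Compounds (1:3 series, 1:50 medium dilution) were preincubated 30 min under normoxia, followed by 6 h at 1% O2, 5% CO2, 37 °C, before Steadylite luciferase detection.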

Structure (SMILES)	pIC50
Cc1nc(-c2nc(-c3ccc(OC(F)(F)F)cc3)no2)nn1Cc1cccc(N(C)C)c1 [Example 52, N,N-Dimethyl-3-((5-methyl-3-(3-(4-(trifluoromethoxy)phenyl)-1,2,4-oxadiazol-5-yl)-1H-1,2,4-triazol-1-yl)methyl)aniline]	> 7.00
Cc1nc(-c2nc(-c3ccc(OC(F)(F)F)cc3)no2)nn1Cc1cccc(C(=O)NC(C)C)c1 [Example 122, 3-[(5-methyl-3-{3-[4-(trifluoromethoxy)phenyl]-1,2,4-oxadiazol-5-yl}-1H-1,2,4-triazol-1-yl)methyl]-N-(propan-2-yl)benzamide]	> 7.00
Cc1nc(-c2ncc(-c3ccc(OC(F)(F)F)cc3)o2)nn1Cc1cccc(C(=O)N(C)C)c1 [Example 157, N,N-dimethyl-3-[(5-methyl-3-{5-[4-(trifluoromethoxy)phenyl]-1,3-oxazol-2-yl}-1H-1,2,4-triazol-1-yl)methyl]benzamide]	6.00 to 7.00
Cc1nc(-c2nc(-c3ccc(OC(F)(F)F)cc3)no2)nn1Cc1ccc(=O)n(CCN(C)C)c1 [Example 128, 1-[2-(dimethylamino)ethyl]-5-[(5-methyl-3-{3-[4-(trifluoromethoxy)phenyl]-1,2,4-oxadiazol-5-yl}-1H-1,2,4-triazol-1-yl)methyl]-1,2-dihydropyridin-2-one]	6.00 to 7.00
Cc1nc(-c2nc(-c3ccc(OC(F)(F)F)cc3)no2)nn1Cc1cccc(OCCN)c1 [Example 70, 5-(1-{[3-(2-Aminoethoxy)phenyl]methyl}-5-methyl-1H-1,2,4-triazol-3-yl)-3-[4-(trifluoromethoxy)phenyl]-1,2,4-oxadiazole]	6.00 to 7.00
Cc1nc(-c2nc(-c3ccc(OC(F)(F)F)cc3)no2)nn1Cc1ccc(Cl)s1 [Example 47, 5-(1-((5-Chlorothiophen-2-yl)methyl)-5-methyl-1H-1,2,4-triazol-3-yl)-3-(4-(trifluoromethoxy)phenyl)-1,2,4-oxadiazole]	6.00 to 7.00
Cc1nc(-c2nc(-c3ccc(C(C)(C)C)cc3)no2)nn1Cc1ccnc(N2CCN(C)CC2)c1 [Example 9, 3-(4-(tert-Butyl)phenyl)-5-(5-methyl-1-((2-(4-methylpiperazin-1-yl)pyridin-4-yl)methyl)-1H-1,2,4-triazol-3-yl)-1,2,4-oxadiazole]	> 7.00
COCCOc1cccc(Cn2nc(-c3ncc(-c4ccc(OC(F)(F)F)cc4)o3)nc2C)c1 [Example 158, l-{[3-(2-methoxyethoxy)phenyl]methyl}-5-methyl-3-{5-[4-(trifluoromethoxy)phenyl]-1,3-oxazol-2-yl}-1H-1,2,4-triazole]	> 7.00
Cc1nc(-c2nc(-c3ccc(OC(F)(F)F)cc3)no2)nn1Cc1ccc(S(C)(=O)=O)cc1 [Example 127, 5-{1-[(4-methanesulfonylphenyl)methyl]-5-methyl-1H-1,2,4-triazol-3-yl}-3-[4-(trifluoromethoxy)phenyl]-1,2,4-oxadiazole]	6.00 to 7.00
Cc1nc(-c2nc(-c3ccc(OC(F)(F)F)cc3)no2)nn1Cc1cccc(S(=O)(=O)NCCO)c1 [Example 131, 2-hydroxy-S-(3-[(5-methyl-3-{3-[4-(trifluoromethoxy)phenyl]-1,2,4-oxadiazol-5-yl}-1H-1,2,4-triazol-1-yl)methyl]phenyl}ethane-1-sulfonamido]	> 7.00
Cc1nc(-c2nc(-c3ccc(OC(F)(F)F)cc3)no2)nn1Cc1cccc(OC2CCN(C)CC2)c1 [Example 73, 1-Methyl-4-{3-[(5-methyl-3-{3-[4-(trifluoromethoxy)phenyl]-1,2,4-oxadiazol-5-yl}-1H-1,2,4-triazol-1-yl)methyl]phenoxy}piperidine]	> 7.00
Cc1nc(-c2nc(-c3ccc(OC(F)(F)F)cc3)no2)nn1Cc1cccc(C(F)(F)F)c1 [Example 102, 5-(5-methyl-1-(3-(trifluoromethyl)benzyl)-1H-1,2,4-triazol-3-yl)-3-(4-(trifluoromethoxy)phenyl)-1,2,4-oxadiazole]	5.00 to 6.00
CNC(=O)c1cccc(Cn2nc(-c3nc(-c4ccc(OC(F)(F)F)cc4)no3)nc2C)c1 [Example 120, N-methyl-3-[(5-methyl-3-{3-[4-(trifluoromethoxy)phenyl]-1,2,4-oxadiazol-5-yl}-1H-1 2 4-triazol-1-yl)methyl]benzamide]	> 7.00
Cc1nc(-c2cc(-c3ccc(OC(F)(F)F)cc3)no2)nn1Cc1ccnc(N2CCC(S(C)(=O)=O)CC2)c1 [Example 95, 5-(5-Methyl-1-((2-(4-(methylsulfonyl)piperidin-1-yl)pyridin-4-yl)methyl)-1H-1,2,4-triazol-3-yl)-3-(4-(trifluoromethoxy)phenyl)isoxazole]	> 7.00
COCCOc1cccc(Cn2nc(-c3nc(-c4ccc(OC(F)(F)F)cc4)cs3)nc2C)c1 [Example 90, 1-{[3-(2-Methoxyethoxy)phenyl]methyl}-5-methyl-3-{4-[4-(trifluoromethoxy)phenyl]-1,3-thiazol-2-yl}-1H-1,2,4-triazole]	6.00 to 7.00
Cc1nc(-c2nc(-c3ccc(OC(F)(F)F)cc3)no2)nn1Cc1cccc(C(=O)NCCN(C)C)c1 [Example 30, N-(2-(Dimethylamino)ethyl)-3-((5-methyl-3-(3-(4-(trifluoromethoxy)phenyl)-1,2,4-oxadiazol-5-yl)-1H-1,2,4-triazol-1-yl)methyl)benzamide]	> 7.00

Structure (SMILES)	pIC50
Cc1nc(-c2nc(-c3ccc(OC(F)(F)F)cc3)no2)nn1Cc1ccccc1 [Example 24, 5-(1-Benzyl-5-methyl-1H-1,2,4-triazol-3-yl)-3-(4-(trifluoromethoxy)phenyl)-1,2,4-oxadiazole]	6.00 to 7.00
COCCCn1cc(Cn2nc(-c3nc(-c4ccc(OC(F)(F)F)cc4)no3)nc2C)ccc1=O [Example 140, 1-(3-methoxypropyl)-5-[(5-methyl-3-{3-[4-(trifluoromethoxy)phenyl]-1,2,4-oxadiazol-5-yl}-1H-1,2,4-triazol-1-yl)methyl]-1,2-dihydropyridin-2-one]	6.00 to 7.00
Cc1nc(-c2nc(-c3ccc(OC(F)(F)F)cc3)no2)nn1Cc1ccnc(N2CCOCC2)n1 [Example 55, 4-(4-((5-Methyl-3-(3-(4-(trifluoromethoxy)phenyl)-1,2,4-oxadiazol-5-yl)-1H-1,2,4-triazol-1-yl)methyl)pyrimidin-2-yl)morpholine]	> 7.00
CCc1nc(-c2nc(-c3ccc(OC(F)(F)F)cc3)no2)nn1Cc1ccccc1 [Example 33, 5-(1-Benzyl-5-ethyl-1H-1,2,4-triazol-3-yl)-3-(4-(trifluoromethoxy)phenyl)-1,2,4-oxadiazole]	5.00 to 6.00
COC(=O)c1cccc(Cn2nc(-c3ncc(-c4ccc(OC(F)(F)F)cc4)o3)nc2C)c1 [Example 155, methyl 3-[(5-methyl-3-{5-[4-(trifluoromethoxy)phenyl]-1,3-oxazol-2-yl}-1H-1,2,4-triazol-1-yl)methyl]benzoate]	6.00 to 7.00
COCCOc1cccc(Cn2nc(-c3nc(-c4ccc(OC(F)(F)F)cc4)no3)nc2C)c1 [Example 60, 5-(1-{[3-(2-Methoxyethoxy)phenyl]methyl}-5-methyl-1H-1,2,4-triazol-3-yl)-3-[4-(trifluoromethoxy)phenyl]-1,2,4-oxadiazole]	> 7.00
CC(=O)N1CCN(c2cc(Cn3nc(-c4nc(-c5ccc(OC(F)(F)F)cc5)no4)nc3C)ccn2)CC1 [Example 38, 1-(4-(4-((5-Methyl-3-(3-(4-(trifluoromethoxy)phenyl)-1,2,4-oxadiazol-5-yl)-1H-1,2,4-triazol-1-yl)methyl)pyridin-2-yl)piperazin-1-yl)ethanone]	> 7.00
Cc1nc(-c2nc(-c3ccc(OC(F)(F)F)cc3)no2)nn1Cc1ccnc(NCCN(C)C)c1 [Example 45, N1,N1-Dimethyl-N2-(4-((5-methyl-3-(3-(4-(trifluoromethoxy)phenyl)-1,2,4-oxadiazol-5-yl)-1H-1,2,4-triazol-1-yl)methyl)pyridin-2-yl)ethane-1,2-diamine]	5.00 to 6.00
Cc1ccc(Cn2nc(-c3nc(-c4ccc(OC(F)(F)F)cc4)no3)nc2C)cc1 [Example 15, 5-(5-Methyl-1-(4-methylbenzyl)-1H-1,2,4-triazol-3-yl)-3-(4-(trifluoromethoxy)phenyl)-1,2,4-oxadiazole]	> 7.00
Cc1nc(-c2nc(-c3ccc(OC(F)(F)F)cc3)no2)nn1Cc1cc(=O)n2ccsc2n1 [Example 49, 7-((5-Methyl-3-(3-(4-(trifluoromethoxy)phenyl)-1,2,4-oxadiazol-5-yl)-1H-1,2,4-triazol-1-yl)methyl)-5H-thiazolo[3,2-a]pyrimidin-5-one]	6.00 to 7.00
Cc1nc(-c2nc(-c3ccc(OC(F)(F)F)cc3)cs2)nn1Cc1cccc(S(C)(=O)=O)c1 [Example 88, 1-[(3-Methanesulfonylphenyl)methyl]-5-methyl-3-{4-[4-(trifluoromethoxy)phenyl]-1,3-thiazol-2-yl}-1H-1,2,4-triazole]	6.00 to 7.00
Cc1nc(-c2nc(-c3ccc(OC(F)(F)F)cc3)no2)nn1Cc1cccc(NCCN(C)C)c1 [Example 11, N,N-Dimethyl-2-((3-((5-methyl-3-(3-(4-(trifluoromethoxy)phenyl)-1,2,4-oxadiazol-5-yl)-1H-1,2,4-triazol-1-yl)methyl)phenyl)amino)ethanaminium trifluoroacetate]	5.00 to 6.00
Cc1nc(-c2noc(-c3ccc(OC(F)(F)F)cc3)n2)nn1Cc1cccc(N2CCN(C)CC2)c1 [Example 56, 3-(5-Methyl-1-(3-(4-methylpiperazin-1-yl)benzyl)-1H-1,2,4-triazol-3-yl)-5-(4-(trifluoromethoxy)phenyl)-1,2,4-oxadiazole]	> 7.00
Cc1nc(-c2nc(-c3ccc(OC(F)(F)F)cc3)no2)nn1Cc1ccnc(N2CCN(C)CC2)n1 [Example 20, 5-(5-Methyl-1-((2-(4-methylpiperazin-1-yl)pyrimidin-4-yl)methyl)-1H-1,2,4-triazol-3-yl)-3-(4-(trifluoromethoxy)phenyl)-1,2,4-oxadiazole]	> 7.00
Cc1nc(-c2nc(-c3ccc(OC(F)(F)F)cc3)no2)nn1Cc1ccc(=O)n(CC(C)C)c1 [Example 77a, 5-[(5-Methyl-3-{3-[4-(trifluoromethoxy)phenyl]-1,2,4-oxadiazol-5-yl}-1H-1,2,4-triazol-1-yl)methyl]-1-(2-methylpropyl)-1,2-dihydropyridin-2-one]	> 7.00
